# Measured values taken from paper PMC10353390, “Biological and Structural Analyses of New Potent Allosteric Inhibitors of HIV-1 Integrase” (Antimicrobial Agents and Chemotherapy, 2023).
# Like-named read-outs stand apart in the source and are kept apart here.
# Assays:
# [1] = biological target: T1, HIV-1 IN (Human immunodeficiency virus type 1 group M subtype B, UniProt P12497); experiment: HTRF IN multimerization assay; type: biochemical; details: mean ± SD
# T1 construct: made in house
# Text: A key property of INLAIs is the ability to promote HIV-1 IN homo-multimerization ([39][–][42]). […] The maximal signal (plateau) in our IN aggregation assay corresponds to the highest HTRF signal increase under saturating INLAI concentration, relative to baseline level. Thus, MUT916, MUT884, MUT871, and MUT872 increased HIV-1 IN aggregation 3.7 to 4.4-fold, while BDM-2, BI-224436, and S-I-82 did so 5 to 6-fold (Table 1).
# [2] = test system: HXB2 HIV-1 strain; experiment: Multiple-round infection assay in MT4 cells, HXB2; type: cell-based; details: Human immunodeficiency virus 1, HXB2; multiple-round infection, MT4 cells; mean ± SD, n > 5; read-out: EC50 HXB2
# In short: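 Antiviral read-out was CellTiter-Glo luminescent viability of exponentially growing MT4 cells (10^6/mL). Cells were exposed to HIV-1 for 2 h at an MOI of 0.001 while compound was present at varying concentrations.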
# [3] = test system: NL4-3 HIV-1 strain; experiment: Multiple-round infection assay in MT4 cells, NL4-3; type: cell-based; details: MT4 cells
# [4] = Cytotoxicity assay in MT4 cells; type: cell-based; details: human, MT4 cells (proliferating human T-cell line), CellTiter-Glo
# Text: Growth inhibition was monitored in a proliferating human T-cell line (MT4) with different concentrations of compounds, using the CellTiter-Glo luminescent reagent (Promega), as previously described ([12]).
# [5] = test system: lab-adapted and clinical HIV-1 isolates; experiment: Infection assays in primary T CD4+ lymphocytes; type: cell-based; details: Human immunodeficiency virus 1, Lymphocyte
# [6] = test system: VSV-G-pseudotyped NL4-3Δenv-luc; experiment: microbe, parasite or virus in culture; type: cell-based, HIV-1
# [7] = test system: recombinant NL4-3 viruses with polymorphisms at IN positions 124 and 125; experiment: Multiple-round infection of MT4 cells with recombinant NL4-3 viruses polymorphic at IN positions 124 and 125; type: cell-based, HIV-1
# In short: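 EC50 fold change relative to wild-type TT NL4-3 was derived from CellTiter-Glo viability of exponentially growing MT4 cells (10^6/mL). Cells were exposed for 2 h, with compounds, to NL4-3 clones bearing one of 15 IN 124/125 variants at MOI 0.001.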
# [8] = test system: primary HIV-1 isolates with polymorphisms at IN positions 124 and 125; experiment: Multiple-round infection of MT4 cells with primary HIV-1 isolates polymorphic at IN positions 124 and 125; type: cell-based; details: primary isolate
# In short: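 Antiviral potency read as protection of cell viability (CellTiter-Glo luminescence). Infection at MOI 0.001 lasted 2 h with compound present at a range of concentrations, using MT4 cells at 10^6/mL in exponential growth.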
# [9] = test system: NL4-3 HIV-1 with INLAI-selected IN single point mutations; type: cell-based
# [10] = set-up: method as in ref 20 = [20]; 20 Single ascending dose trial investigating safety, tolerability and pharmacokinetics of BDM-2 in healthy male subjects . https://clinicaltrials.gov/ct2/show/NCT03634085 . Accessed 17 July 2020 .; details: single ascending dose, healthy male subjects; cited from earlier work
# [11] = biological target: HIV-1 IN-LEDGF/p75 interaction (Human immunodeficiency virus type 1 group M subtype B, UniProt P12497); experiment: biochemical
# Protocol: The INLAIs were tested for the ability to inhibit the HIV-1 IN-LEDGF/p75 interaction in a homogeneous time-resolved fluorescence (HTRF) assay. Our assays used either full-length IN and LEDGF/p75 proteins or their respective minimally sufficient interaction domains: the CCD of HIV-1 IN and the IBD of LEDGF/p75 (Table 1).
# HTRF-based CCD-IBD interaction, IN-LEDGF/p75 interaction and IN multimerization assays were performed as described previously ([12]).
# [12] = biological target: CCD of HIV-1 IN and IBD of LEDGF/p75 (Human immunodeficiency virus type 1 group M subtype B, UniProt P12497); experiment: biochemical
smiles,measurement,setting,value
Cc1ccc(C2CC2)c(-c2ccc3c(c2)CCCO3)c1[C@H](OC(C)(C)C)C(=O)O [BDM-2],AC50,[1]; concentration for 50% maximum activation of multimerization,20 ± 11 nM
same,IN multimerization Plateau,[1]; maximum multimerization reached versus baseline,560 ± 150%
same,EC50,[2],4.5 ± 1.2 nM
same,EC90,"[3]; Human immunodeficiency virus 1, NL43, multiple-round infection, from dose response curves, read-out: EC90 NL4-3",13 ± 5.1 nM
same,EC50,"[3]; Human immunodeficiency virus 1, NL43, multiple-round infection, mean ± SD, n > 5, read-out: EC50 NL4-3",8.7 ± 2.8 nM
same,Selectivity index CC50/EC50 NL4-3,[3],"7,931"
same,CC50,[4],69000 ± 8000 nM
same,EC50,[5]; read-out: EC50 33913N (B),4.2 ± 1.6 nM
same,EC50,[5]; read-out: EC50 HXB2 (B),3.4 ± 1 nM
same,EC50,[5]; read-out: EC50 KER2008 (A),8.1 ± 1.3 nM
same,EC50,[5]; read-out: EC50 NL4-3 (B),8.3 ± 4.3 nM
same,EC50,[5]; read-out: EC50 NP1525 (CRF01_AE),11 ± 5 nM
same,EC50,[5]; read-out: EC50 NP1538 (B),13 ± 6 nM
same,EC50 ratio (single/multiple-round infection),[6],161
same,EC50,"[6]; Human immunodeficiency virus 1, NL43, MT4, read-out: EC50 in single-round infection",1400 ± 300 nM
same,"Fold change in EC50 relative to parental NL4-3, AA","[7]; recombinant NL4-3, IN 124/125 AA",1
same,"Fold change in EC50 relative to parental NL4-3, AM","[7]; recombinant NL4-3, IN 124/125 AM",0.4
same,"Fold change in EC50 relative to parental NL4-3, AT","[7]; recombinant NL4-3, IN 124/125 AT",1
same,"Fold change in EC50 relative to parental NL4-3, AV","[7]; recombinant NL4-3, IN 124/125 AV",2
same,"Fold change in EC50 relative to parental NL4-3, GA","[7]; recombinant NL4-3, IN 124/125 GA",1
same,"Fold change in EC50 relative to parental NL4-3, GT","[7]; recombinant NL4-3, IN 124/125 GT",1
same,"Fold change in EC50 relative to parental NL4-3, NA","[7]; recombinant NL4-3, IN 124/125 NA",1
same,"Fold change in EC50 relative to parental NL4-3, NT","[7]; recombinant NL4-3, IN 124/125 NT",1
same,"Fold change in EC50 relative to parental NL4-3, NV","[7]; recombinant NL4-3, IN 124/125 NV",1
same,"Fold change in EC50 relative to parental NL4-3, SA","[7]; recombinant NL4-3, IN 124/125 SA",1
same,"Fold change in EC50 relative to parental NL4-3, ST","[7]; recombinant NL4-3, IN 124/125 ST",1
same,"Fold change in EC50 relative to parental NL4-3, TA","[7]; recombinant NL4-3, IN 124/125 TA",1
same,"Fold change in EC50 relative to parental NL4-3, TM","[7]; recombinant NL4-3, IN 124/125 TM",0.3
same,"Fold change in EC50 relative to parental NL4-3, TV","[7]; recombinant NL4-3, IN 124/125 TV",1
same,"Fold change in EC50 relative to parental NL4-3, CAM2BBY (CRF02)",[8]; IN 124/125 AA,2
same,"Fold change in EC50 relative to parental NL4-3, E0836M4 (D)",[8]; IN 124/125 AA,1
same,"Fold change in EC50 relative to parental NL4-3, KER2008 (A)",[8]; IN 124/125 AA,1
same,"Fold change in EC50 relative to parental NL4-3, NP1525 (CRF01)",[8]; IN 124/125 AA,1
same,"Fold change in EC50 relative to parental NL4-3, NP1695 (CRF02)",[8]; IN 124/125 AA,2
same,"Fold change in EC50 relative to parental NL4-3, TZA125 (C)",[8]; IN 124/125 AA,0.4
same,"Fold change in EC50 relative to parental NL4-3, KSM4030 (A)",[8]; IN 124/125 GA,2
same,"Fold change in EC50 relative to parental NL4-3, vGA (C)",[8]; IN 124/125 GA,4
same,"Fold change in EC50 relative to parental NL4-3, 99ET14 (C)",[8]; IN 124/125 NA,1
same,"Fold change in EC50 relative to parental NL4-3, NP1538 (B)",[8]; IN 124/125 NA,2
same,"Fold change in EC50 relative to parental NL4-3, vNA_1 (B)",[8]; IN 124/125 NA,2
same,"Fold change in EC50 relative to parental NL4-3, vNA_2 (CRF02)",[8]; IN 124/125 NA,3
same,"Fold change in EC50 relative to parental NL4-3, vNV (B)",[8]; IN 124/125 NV,2
same,"Fold change in EC50 relative to parental NL4-3, vSA_1 (B)",[8]; IN 124/125 SA,3
same,"Fold change in EC50 relative to parental NL4-3, vSA_2 (CRF02)",[8]; IN 124/125 SA,3
same,"Fold change in EC50 relative to parental NL4-3, vTA_1 (B)",[8]; IN 124/125 TA,2
same,"Fold change in EC50 relative to parental NL4-3, vTA_2 (CRF02)",[8]; IN 124/125 TA,1
same,"EC50 fold change compared to wild type NL4-3, A128T",[9],4
same,"EC50 fold change compared to wild type NL4-3, H171Q",[9],3
same,"EC50 fold change compared to wild type NL4-3, N222K",[9],2
same,"EC50 fold change compared to wild type NL4-3, T174I",[9],253
same,"EC50 fold change compared to wild type NL4-3, Y99H",[9],4
same,safety in phase I clinical trial,[10],without any serious adverse event and few mild adverse events
same,IC50,[11],47 ± 14 nM
same,IC50,[12],150 ± 30 nM
